Measurements from the supplement of paper PMC4858399.
Counter-ions that a name gives are not always drawn.

Legend:
Details in all cases: exposure time 48 h
[1] = test system: Caenorhabditis elegans N2; assay: AC50 for larval growth inhibition (Hill fit); higher = less potent
Outline: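 Synchronised C. elegans N2 L1 larvae (50 per well, 96-well plates) were grown for 48 h at 20°C in K-medium with killed OP50, 1% DMSO and 0.5–200 µM chemical. The COPAS Biosort measured each worm's size as extinction, which was log-transformed and averaged per well. AC50 came from a constrained Hill fit by weighted genetic-algorithm regression on wells with at least 10 worms. Out-of-range values are censored.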

[2] = test system: Caenorhabditis elegans N2; assay: lowest effective concentration for larval growth inhibition (size below effect threshold); higher = less potent
Outline: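 Log-transformed well means of per-worm extinction, read as size on a Biosort, came from 50 C. elegans N2 L1 larvae per 96-well grown 48 h at 20°C in K-medium with killed bacteria, 1% DMSO and 0.5 to 200 µM chemical. The lowest effective concentration is the first dose at which the plate-adjusted mean size is below the threshold and stays below it at every higher dose. The threshold is 5.665.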

[3] = test system: Caenorhabditis elegans N2; assay: mean nematode size ln(EXT) after 48 h, plate-adjusted (DMSO control set to 6) (ln(EXT), control-adjusted); higher = larger nematodes / less growth inhibition
Outline: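 C. elegans N2 larvae, synchronised at L1, grew for 48 h at 20°C in K-medium with killed OP50, 1% DMSO and 0.5–200 µM chemical. Mean size per well was derived from natural-logged Biosort extinction after a growth model removed debris. Adjustment across plates involved subtracting the vehicle control mean and adding 6.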

Row | Structure (SMILES) | AC50 for larval growth inhibition [1] | lowest effective concentration [2] | mean nematode size ln(EXT) (ln) ([3]; 0.5 µM) | mean nematode size ln(EXT) (ln) ([3]; 1 µM) | mean nematode size ln(EXT) (ln) ([3]; 5 µM) | mean nematode size ln(EXT) (ln) ([3]; 10 µM) | mean nematode size ln(EXT) (ln) ([3]; 50 µM) | mean nematode size ln(EXT) (ln) ([3]; 100 µM) | mean nematode size ln(EXT) (ln) ([3]; 200 µM)
1 | O=S(=O)(O)C(F)(F)C(F)(F)C(F)(F)C(F)(F)C(F)(F)C(F)(F)C(F)(F)C(F)(F)F [Heptadecafluorooctanesulfonic acid potassium salt] | 11.4 µM | ≤ 0.5 µM | 5.46 | 5.57 | 5.12 | 4.63 | 3.8 | 3.62 | 3.47
2 | CCCCOC(=O)C(C)Oc1ccc(Oc2ccc(C(F)(F)F)cn2)cc1 (stereo not given) [Fluazifop-butyl] | 191 µM | 100 µM | 6.21 | 6.17 | 6.11 | 6.18 | 5.87 | 5.5 | 4.66
3 | CCN(Cc1c(F)cccc1Cl)c1c([N+](=O)[O-])cc(C(F)(F)F)cc1[N+](=O)[O-] [Flumetralin] | 180 µM | 200 µM | 6.16 | 6.01 | 6 | 6.02 | 6.1 | 6.11 | 3.65
4 | Cc1ccccc1Cl [2-Chlorotoluene] | 178 µM | 200 µM | 6.08 | 6.06 | 5.92 | 6.02 | 5.98 | 6.04 | 3.3
5 | Cc1cc2c3c(c1)C(c1ccccc1)=N[C@@H](NC(=O)c1ccncc1)C(=O)N3CC2 | > 200 µM | 200 µM | 5.86 | 5.88 | 5.88 | 5.88 | 5.9 | 5.83 | 5.23
6 | CCOP(=S)(Oc1cnc(C(C)(C)C)nc1)OC(C)C (stereo not given) [Tebupirimfos] | 46.5 µM | 50 µM | 6 | 6.01 | 5.89 | 5.76 | 4.5 | 3.66 | 3.56
7 | CCOP(=S)(OCC)Oc1ccc2c(C)c(Cl)c(=O)oc2c1 [Coumaphos] | 3.33 µM | ≤ 0.5 µM | 5.36 | 5.23 | 4.39 | 4.44 | 3.95 | 3.82 | 3.58
8 | Cc1ccc(Cl)cc1 [4-Chlorotoluene] | > 200 µM | 100 µM | 5.8 | 5.74 | 5.72 | 5.77 | 5.8 | 5.63 | 5.37
9 | O=C(O)C(F)(F)C(F)(F)C(F)(F)C(F)(F)C(F)(F)C(F)(F)C(F)(F)F [Perfluorooctanoic acid] | 60.2 µM | 100 µM | 6 | 6 | 5.94 | 6.02 | 5.75 | 5.24 | 5.31
10 | N#CSCSC#N [Methylene bis(thiocyanate)] | 17.5 µM | ≤ 0.5 µM | 5.41 | 5.47 | 5.22 | 5.16 | 3.74 | 3.85 | 3.4
11 | CC(C)(C)C(O)C(Oc1ccc(Cl)cc1)n1cncn1 (stereo not given) [Triadimenol] | > 200 µM | 200 µM | 5.84 | 5.88 | 5.9 | 5.93 | 5.79 | 5.95 | 5.59
12 | CCOC(=O)C(Cl)Cc1cc(-n2nc(C)n(C(F)F)c2=O)c(F)cc1Cl (stereo not given) [Carfentrazone-ethyl] | > 200 µM | 200 µM | 6.04 | 5.98 | 6.04 | 6.04 | 5.93 | 5.98 | 5.59
13 | CCCCOC(=O)c1ccccc1C(=O)OCCCC [Dibutyl phthalate] | 20.9 µM | 50 µM | 6.09 | 6.09 | 5.61 | 5.99 | 4.67 | 5.62 | 5.42
14 | O=C(O)C(F)(F)C(F)(F)C(F)(F)C(F)(F)C(F)(F)C(F)(F)C(F)(F)F [Pentadecafluorooctanoic acid ammonium salt] | > 200 µM | 200 µM | 5.88 | 5.86 | 5.85 | 5.84 | 5.83 | 5.68 | 5.43
15 | O=S1OCC2C(CO1)C1(Cl)C(Cl)=C(Cl)C2(Cl)C1(Cl)Cl (stereo not given) [Endosulfan] | 6.12 µM | 5 µM | 5.74 | 5.72 | 5.08 | 3.84 | 3.51 | 3.24 | 3.47
16 | CO/C=C(/C(=O)OC)c1ccccc1COc1cccc(C(F)(F)F)n1 [Picoxystrobin] | 48.6 µM | 50 µM | 5.95 | 5.83 | 5.92 | 5.89 | 4.97 | 4.26 | 4.61
17 | Nc1ccc(Cl)cc1 [p-Chloroaniline] | 58.2 µM | 50 µM | 5.79 | 5.76 | 5.74 | 5.76 | 5.28 | 4.43 | 4.21
18 | COc1cc(C(C)C)c2c(c1)S(=O)(=O)N(COc1cc(=O)n3cccc(OCCN4CCCCC4)c3n1)C2=O | > 200 µM | 200 µM | 5.91 | 5.92 | 5.88 | 5.88 | 5.87 | 5.72 | 5.47
19 | c1ccc2c(c1)-c1cccc3c1c-2cc1ccccc13 [Benzo[b]fluoranthene] | < 0.5 µM | ≤ 0.5 µM | 5.22 | 4.39 | 4.09 | 4.15 | 4.17 | 5.53 | 4.32
20 | O=C(N[C@@H](c1ccccc1)[C@@H]1CCCCN1)c1cccc(C(F)(F)F)c1Cl | 148 µM | 10 µM | 5.86 | 5.78 | 5.75 | 5.66 | 5.2 | 4.58 | 4.47
21 | CN[C@H]1CC[C@@H](c2ccc(Cl)c(Cl)c2)c2ccc(S(N)(=O)=O)cc21 | 90.3 µM | 50 µM | 5.87 | 5.84 | 5.88 | 5.84 | 5.4 | 4.42 | 3.62
22 | CC(C)(C)c1cccc(C(C)(C)C)c1O [2,6-Di-tert-butylphenol] | > 200 µM | 200 µM | 6.07 | 5.99 | 6.03 | 6.07 | 5.91 | 5.88 | 5.19
23 | CN(C)C(=S)SSC(=S)N(C)C [Thiram] | 48.9 µM | 50 µM | 6 | 6.02 | 6.06 | 6.13 | 5.55 | 5.36 | 5.13

Row | Structure (SMILES) | AC50 for larval growth inhibition [1] | lowest effective concentration [2] | mean nematode size ln(EXT) (ln) ([3]; 0.5 µM) | mean nematode size ln(EXT) (ln) ([3]; 1 µM) | mean nematode size ln(EXT) (ln) ([3]; 5 µM) | mean nematode size ln(EXT) (ln) ([3]; 10 µM) | mean nematode size ln(EXT) (ln) ([3]; 50 µM) | mean nematode size ln(EXT) (ln) ([3]; 100 µM) | mean nematode size ln(EXT) (ln) ([3]; 200 µM)
24 | CC(=O)N1CCN(c2ccc(OCC3COC(Cn4ccnc4)(c4ccc(Cl)cc4Cl)O3)cc2)CC1 (stereo not given) [Ketoconazole] | 85.2 µM | 10 µM | 6 | 5.74 | 5.8 | 5.62 | 5.3 | 4.28 | 3.53
25 | CCCCCCOC(=O)c1ccccc1C(=O)OCCCCCC [Dihexyl phthalate] | > 200 µM | 200 µM | 5.8 | 5.83 | 5.89 | 5.83 | 5.81 | 5.73 | 5.5
26 | CCCC1COC(Cn2cncn2)(c2ccc(Cl)cc2Cl)O1 (stereo not given) [Propiconazole] | > 200 µM | 200 µM | 6.02 | 6.09 | 6.16 | 6.21 | 5.95 | 5.93 | 5.05
27 | O=C(Nc1ccc(Cl)cc1)Nc1ccc(Cl)c(Cl)c1 [3,4,4'-Trichlorocarbanilide] | 0.964 µM | ≤ 0.5 µM | 5.51 | 4.97 | 4.28 | 4.21 | 4.26 | 4.1 | 3.81
28 | CN(C)c1ccc(N=NS(=O)(=O)O)cc1 [Fenaminosulf] | 54.8 µM | 50 µM | 5.95 | 5.88 | 5.79 | 5.86 | 4.72 | 3.9 | 3.5
29 | O=NN(c1ccccc1)c1ccccc1 [N-Nitrosodiphenylamine] | > 200 µM | 200 µM | 6.12 | 6.03 | 6.08 | 6.08 | 6 | 5.87 | 5.26
30 | CCCCCCCC(=O)OC [Methyl octanoate] | > 200 µM | 200 µM | 5.88 | 5.84 | 5.85 | 5.9 | 5.74 | 5.88 | 5.52
31 | OC(Cn1cncn1)(Cn1cncn1)c1ccc(F)cc1F [Fluconazole] | > 200 µM | 200 µM | 6.08 | 6.04 | 6.06 | 6.09 | 6.01 | 5.99 | 5.56
32 | CCCCOC(=O)[C@H](C)Oc1ccc(Oc2ccc(C#N)cc2F)cc1 [Cyhalofop-butyl] | 107 µM | 200 µM | 6 | 6 | 6.12 | 6.17 | 6.08 | 5.91 | 5.22
33 | CCOP(=S)(OCC)SCSCC [Phorate] | > 200 µM | 100 µM | 5.9 | 5.87 | 5.8 | 5.76 | 5.68 | 5.55 | 5.21
34 | COP(=O)(OC)SCn1c(=O)oc2cc(Cl)cnc21 [Azamethiphos] | > 200 µM | 200 µM | 6.07 | 5.94 | 5.91 | 5.93 | 5.88 | 5.75 | 5.57
35 | CN(C)C(=O)Nc1ccc(Cl)c(Cl)c1 [Diuron] | 179 µM | 200 µM | 6.19 | 6.62 | 6.24 | 6.31 | 6.48 | 6.26 | 5.16
36 | CC(C)(C)C(O)/C(=C/c1ccc(Cl)cc1Cl)n1cncn1 (stereo not given) [Diniconazole] | 38.3 µM | 10 µM | 5.97 | 5.84 | 5.68 | 5.59 | 4.97 | 3.98 | 4.28
37 | CSc1nc(NC(C)C)nc(NC(C)C)n1 [Prometryn] | > 200 µM | 200 µM | 5.83 | 5.76 | 5.87 | 6 | 5.79 | 5.86 | 5.37
38 | C#CCC1=C(C)C(OC(=O)C2C(C=C(C)C)C2(C)C)CC1=O (stereo not given) [Prallethrin] | 188 µM | 200 µM | 5.85 | 6.08 | 6.07 | 6.04 | 5.94 | 6.04 | 4.41
39 | CCc1cc(SCc2sc(-c3ccc(C(F)(F)F)cc3)nc2CN2CCN(c3ccc(OC)cc3)CC2)ccc1OCC(=O)O | 9.23 µM | 5 µM | 6 | 5.67 | 5.57 | 4.69 | 4.47 | 4.29 | 3.99
40 | CCOc1cccc(-n2cc(C(=O)N3CCN(c4cc(C(=O)O)c5ccccc5c4)CC3)nc2-c2ccc(C)cc2)c1 | 57.9 µM | 50 µM | 5.89 | 5.86 | 5.82 | 5.84 | 4.84 | 4.42 | 3.94
41 | Clc1nc(Cl)c(Cl)c(Cl)c1Cl [Pentachloropyridine] | > 200 µM | 50 µM | 5.87 | 5.81 | 5.83 | 5.82 | 5.6 | 5.48 | 5.59
42 | CNCc1cc(F)ccc1Oc1ccc(Cl)c(Cl)c1 | 39.1 µM | 10 µM | 5.86 | 5.78 | 5.86 | 5.24 | 4.33 | 4.11 | 3.59
43 | CCCCCCc1ccc(O)cc1O [4-Hexylresorcinol] | 181 µM | 50 µM | 6 | 5.89 | 5.83 | 5.84 | 5.6 | 5.03 | 4.47
44 | C=CCC1=C(C)C(OC(=O)C2C(C=C(C)C)C2(C)C)CC1=O (stereo not given) [Allethrin] | > 200 µM | 50 µM | 5.9 | 5.91 | 5.87 | 5.86 | 5.64 | 5.59 | 5.23
45 | CCCCc1oc2ccccc2c1C(=O)c1cc(I)c(OCCN(CC)CC)c(I)c1 [Amiodarone HCl] | 31.9 µM | 50 µM | 5.9 | 5.96 | 5.82 | 5.72 | 4.41 | 3.85 | 3.8
